According to PMC9425443 (RSC Advances, 2022):
Structures can show the parent of a compound that is named as a salt.

Tests used:
[1] = biological target: T1, CYP142A1 C281S (Mycobacterium tuberculosis, UniProt P9WPL5, C281S); format: biochemical
[2] = biological target: T2, CYP142A1 C296S (Mycobacterium tuberculosis, UniProt P9WPL5, C296S); format: biochemical
[3] = biological target: T3, CYP142A1 C110S (Mycobacterium tuberculosis, UniProt P9WPL5, C110S); format: biochemical
[4] = biological target: T4, CYP142A1 C118S (Mycobacterium tuberculosis, UniProt P9WPL5, C118S); format: biochemical
[5] = biological target: T5, CYP142A1 C123S (Mycobacterium tuberculosis, UniProt P9WPL5, C123S); format: biochemical
[6] = biological target: T6, CYP142A1 C316S (Mycobacterium tuberculosis, UniProt P9WPL5, C316S); format: biochemical
[7] = biological target: T6, CYP142A1 C316S; conditions: pH 7.4
[8] = biological target: T5, CYP142A1 C123S; conditions: pH 7.4
[9] = biological target: T3, CYP142A1 C110S; conditions: pH 7.4
[10] = biological target: T4, CYP142A1 C118S; conditions: pH 7.4
[11] = biological target: T2, CYP142A1 C296S; conditions: pH 7.4
[12] = biological target: T1, CYP142A1 C281S; conditions: pH 7.4

Compound	kcat [1] [s⁻¹]	kcat [2] [s⁻¹]	kcat [3] [s⁻¹]	kcat [4] [s⁻¹]	kcat [5] [s⁻¹]	kcat [6] [s⁻¹]	Kd [7] [µM]	Kd [8] [µM]	Kd [9] [µM]	Kd [10] [µM]	Kd [11] [µM]	Kd [12] [µM]
CC(C)CCC[C@@H](C)[C@H]1CC[C@H]2[C@@H]3CCC4=CC(=O)CC[C@]4(C)[C@H]3CC[C@]12C [Cholest-4-en-3-one]	0.0917 ± 0.00617	0.0767 ± 0.00583	0.11 ± 0.0113	0.0933 ± 0.00633	0.085 ± 0.00617	0.0783 ± 0.00617						
CC(C)CCC[C@@H](C)[C@H]1CC[C@H]2[C@@H]3CC=C4C[C@@H](OS(=O)(=O)O)CC[C@]4(C)[C@H]3CC[C@]12C [Cholesteryl sulfate]							26 ± 8	35 ± 9.3	37 ± 8.7	33 ± 4.3	25 ± 9.6	37 ± 8.8
Cholesteryl propionate							46 ± 6.8	23 ± 5	35 ± 4.9	43 ± 10	48 ± 5.9	47 ± 7.6
